Experimental data as given in US9045491B2, “Thienyl [3,2-D] pyrimidin-4-one compounds, preparation method, pharmaceutical compositions and use thereof” (SHANGHAI INSTITUTE OF MATERIA MEDICA, CHINESE ACADEMY OF …, priority 2011, dated 2015).

Experiments:
[1] = tested on: normal ICR mouse; test: Oral glucose tolerance test (OGTT), acute hypoglycemic effect of single oral dose; format: in vivo; settings: for hypoglycemic ability in vivo, oral glucose tolerance test: single dose 3 mg/kg by gavage, glucose 2.5 g/kg after 6 hours, FIGS. 7-10
Description: Acute hypoglycemic effect of single dose through mouth on the normal ICR mouse
Animal: ICR mouse (8-10 weeks old, sex: male, weight: 25-30 g, purchased from Shanghai SLAC Laboratory Animal Center).
1. Two days before the experiment, the food consumption was recorded and the daily food consumption of each animal was calculated;
2. The animals fasted overnight (⅓ of daily food consumption was provided, about 2 g);
3. The blood glucose was measured on the second day.
4. The medicament was administrated through gavage (1 mouse/min). After 6 hours, the blood glucose was measured. Glucose was administrated through gavage according to the body weight (2.5 g/kg). The blood glucose value was monitored at 30 min, 60 min, 90 min, and 120 min after administration.

[2] = target: T1, DPP IV (Mus musculus, UniProt P28843); test: DPP IV inhibitory activity in vivo: DPP IV activity in plasma of ICR mouse after single oral dose; settings: oral 3 mg/kg, compared with Alogliptin and Vildagliptin (LAF237), FIG. 1-6
T1 construct: from tissue; host or cells: plasma of ICR mouse
T1 sequence (P28843 37-760 limits assumed): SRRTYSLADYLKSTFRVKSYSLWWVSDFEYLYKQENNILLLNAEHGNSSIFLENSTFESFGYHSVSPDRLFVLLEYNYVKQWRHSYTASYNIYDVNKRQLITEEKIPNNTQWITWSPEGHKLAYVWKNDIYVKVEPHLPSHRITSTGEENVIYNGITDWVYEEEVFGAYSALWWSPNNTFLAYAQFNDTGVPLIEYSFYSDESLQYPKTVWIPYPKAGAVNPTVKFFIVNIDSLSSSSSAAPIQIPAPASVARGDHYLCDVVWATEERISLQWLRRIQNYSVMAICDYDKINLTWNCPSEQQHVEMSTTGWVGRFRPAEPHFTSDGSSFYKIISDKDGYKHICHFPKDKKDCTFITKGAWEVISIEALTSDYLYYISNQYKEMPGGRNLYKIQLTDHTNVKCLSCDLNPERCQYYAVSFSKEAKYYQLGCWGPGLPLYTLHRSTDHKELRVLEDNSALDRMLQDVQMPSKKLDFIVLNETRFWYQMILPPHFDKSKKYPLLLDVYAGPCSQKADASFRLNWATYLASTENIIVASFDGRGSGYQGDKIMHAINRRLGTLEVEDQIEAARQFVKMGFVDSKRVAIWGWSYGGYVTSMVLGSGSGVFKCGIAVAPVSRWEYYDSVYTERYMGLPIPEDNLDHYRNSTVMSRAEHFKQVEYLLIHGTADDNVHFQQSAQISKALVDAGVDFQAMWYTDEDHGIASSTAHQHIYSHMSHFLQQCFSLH
Description: Animals: ICR mouse (8-10 weeks old; sex: male; 25 g-30 g of body weight, purchased from Shanghai SLAC Laboratory Animal Center).
Meanwhile the solvent group was used as blank control. The blood was taken from orbital venous plexus of the mouse before administration, and 30, 60, 2 h, 4 h, 6 h, 8 h and […] after administration, respectively and loaded into Eppendorf tube (Qizhong Industrial (Shanghai) co., Ltd.) treated by anticoagulant. The plasma was obtained by centrifugation and DPP IV activity was determined.

[3] = Safety evaluation: single dose 100 mg/kg by gavage, one week observation; format: in vivo, ICR mouse; settings: for body weight and viscera index versus normal control group (in words) / acute toxicity / kidney index versus normal control group (in words): ICR mouse; for body weight and viscera index versus normal control group (in words) / Kidney index / Liver index / Spleen index / body weight / food consumption: 100 mg/kg single dose; for acute toxicity: 100 mg/kg single dose by gavage, one week; for kidney index versus normal control group (in words): 100 mg/kg, 7th day after administration; for Kidney index / Liver index / Spleen index / body weight / food consumption: normal ICR mouse; for Kidney index / Liver index / Spleen index: 7th day
Description: After grouping, each compound was administrated once through gavage according to the dose of 100 mg/kg at the same time.

| SMILES | hypoglycemic ability in vivo, oral glucose tolerance test [1] | DPP IV activity of ICR mouse plasma after single dose (given as hypoglycemic ability in vivo) [2] | body weight and viscera index versus normal control group (in words) [3] | acute toxicity [3] | kidney index versus normal control group (in words) [3] | Kidney index [3] | Liver index [3] | Spleen index [3] | body weight ([3]; 1 d after administration) | food consumption ([3]; 1 d after administration) | body weight ([3]; 2 d after administration) | food consumption ([3]; 2 d after administration) | body weight ([3]; 3 d after administration) | food consumption ([3]; 3 d after administration) | body weight ([3]; 4 d after administration) | food consumption ([3]; 4 d after administration) | body weight ([3]; 5 d after administration) | food consumption ([3]; 5 d after administration) | body weight ([3]; 6 d after administration) | food consumption ([3]; 6 d after administration) | further results |
| --- | --- | --- | --- | --- | --- | --- | --- | --- | --- | --- | --- | --- | --- | --- | --- | --- | --- | --- | --- | --- | --- |
| N#Cc1ccccc1Cn1c(N2CCC[C@@H](N)C2)nc2c(C(=O)NC3CCOCC3)csc2c1=O [DC291034] | comparable to that of Alogliptin | – | – | – | – | – | – | – | – | – | – | – | – | – | – | – | – | – | – | – | – |
| N#Cc1ccccc1Cn1c(N2CCC[C@@H](N)C2)nc2c(C#N)csc2c1=O [DC291036] | comparable to that of Alogliptin | – | – | – | – | – | – | – | – | – | – | – | – | – | – | – | – | – | – | – | – |
| N#Cc1ccccc1Cn1c(N2CCC[C@@H](N)C2)nc2c(CO)csc2c1=O [DC291004] | comparable to that of Alogliptin | comparable to that of Alogliptin (3 mg), and better than that of Vildagliptin (LAF237, 15 mg) | no statistical difference | did not reflect obvious acute toxicity | did not significantly differ | 1.5 ± 0.1% | 5.3 ± 0.3% | 0.4 ± 0.0% | 30.3 ± 1.0 g | 18.7 g · day^−1 · cage^−1 | 30.8 ± 0.9 g | 21.0 g · day^−1 · cage^−1 | 31.0 ± 1.2 g | 21.1 g · day^−1 · cage^−1 | 31.6 ± 1.2 g | 21.5 g · day^−1 · cage^−1 | 32.0 ± 1.6 g | 21.9 g · day^−1 · cage^−1 | 32.0 ± 1.2 g | 21.5 g · day^−1 · cage^−1 | body weight ([3]; 7 d after administration): 32.5 ± 1.3 g; food consumption ([3]; 7 d after administration): 24.1 g · day^−1 · cage^−1; body weight ([3]; before administration): 30.2 ± 0.7 g; food consumption ([3]; before administration): 22.5 g · day^−1 · cage^−1 |
| CC(=O)OCc1cc2nc(N3CCC[C@@H](N)C3)n(Cc3ccccc3C#N)c(=O)c2s1 [DC291405] | – | comparable to that of Alogliptin (3 mg), and better than that of Vildagliptin (LAF237, 15 mg) | – | – | – | – | – | – | – | – | – | – | – | – | – | – | – | – | – | – | – |
| COC(=O)c1csc2c(=O)n(Cc3ccccc3C#N)c(N3CCC[C@@H](N)C3)nc12 [DC291009] | comparable to that of Alogliptin | comparable to that of Alogliptin (3 mg), and better than that of Vildagliptin (LAF237, 15 mg) | no statistical difference | did not reflect obvious acute toxicity | slightly lower than that of normal control group | 1.4 ± 0.1% | 5.3 ± 0.2% | 0.4 ± 0.1% | 31.3 ± 2.0 g | 21.2 g · day^−1 · cage^−1 | 31.5 ± 2.3 g | 21.3 g · day^−1 · cage^−1 | 31.8 ± 2.3 g | 22.6 g · day^−1 · cage^−1 | 32.3 ± 2.2 g | 22.8 g · day^−1 · cage^−1 | 32.4 ± 2.5 g | 22.2 g · day^−1 · cage^−1 | 32.6 ± 2.6 g | 21.9 g · day^−1 · cage^−1 | hypoglycemic ability in vivo, oral glucose tolerance test after multiple single-dose administration ([1]; single administration at multiple doses, FIGS. 11-12): comparable to that of Alogliptin; body weight ([3]; 7 d after administration): 33 ± 2.6 g; food consumption ([3]; 7 d after administration): 23.8 g · day^−1 · cage^−1; body weight ([3]; before administration): 30.8 ± 2.2 g; food consumption ([3]; before administration): 23.3 g · day^−1 · cage^−1 |
| CCOC(=O)CCNC(=O)c1csc2c(=O)n(Cc3ccccc3C#N)c(N3CCC[C@@H](N)C3)nc12 [DC291041] | – | comparable to that of Alogliptin (3 mg), and better than that of Vildagliptin (LAF237, 15 mg) | – | – | – | – | – | – | – | – | – | – | – | – | – | – | – | – | – | – | – |
| N#Cc1ccccc1Cn1c(N2CCC[C@@H](N)C2)nc2cc(COCc3ccccc3)sc2c1=O [DC291402] | comparable to that of Alogliptin | comparable to that of Alogliptin (3 mg), and better than that of Vildagliptin (LAF237, 15 mg) | – | – | – | – | – | – | – | – | – | – | – | – | – | – | – | – | – | – | – |
| N#Cc1ccccc1Cn1c(N2CCC[C@@H](N)C2)nc2c(CN3CCOCC3)csc2c1=O [DC291005] | – | comparable to that of Alogliptin (3 mg), and better than that of Vildagliptin (LAF237, 15 mg) | – | – | – | – | – | – | – | – | – | – | – | – | – | – | – | – | – | – | – |
| N#Cc1ccccc1Cn1c(N2CCC[C@@H](N)C2)nc2cc(C(Br)Br)sc2c1=O [DC291411] | comparable to that of Alogliptin | comparable to that of Alogliptin (3 mg), and better than that of Vildagliptin (LAF237, 15 mg) | no statistical difference | did not reflect obvious acute toxicity | slightly lower than that of normal control group | 1.4 ± 0.1% | 5.0 ± 0.4% | 0.4 ± 0.0% | 30.5 ± 1.6 g | 19.3 g · day^−1 · cage^−1 | 31.2 ± 1.6 g | 21.3 g · day^−1 · cage^−1 | 31.0 ± 1.7 g | 18.8 g · day^−1 · cage^−1 | 31.5 ± 1.9 g | 18.3 g · day^−1 · cage^−1 | 31.8 ± 1.5 g | 17.7 g · day^−1 · cage^−1 | 31.6 ± 1.8 g | 20.5 g · day^−1 · cage^−1 | body weight ([3]; 7 d after administration): 32.1 ± 1.7 g; food consumption ([3]; 7 d after administration): 21.9 g · day^−1 · cage^−1; body weight ([3]; before administration): 30 ± 1.5 g; food consumption ([3]; before administration): 20.8 g · day^−1 · cage^−1 |
